Numbers after ± are expanded uncertainties.
Assay: molar heat capacity at constant pressure; xn = mol fraction of the nth substance listed
Conditions: 100 kPa, Liquid, DSC, x1 = 0.53

N#Cc1ccccc1 [benzonitrile] + CCCCCCCCCC
Conditions	molar heat capacity at constant pressure [J/K/mol]
297.05 K	242.4 ± 9.4
297.34 K	242.5 ± 9.4
297.62 K	242.5 ± 9.4
297.91 K	242.4 ± 9.4
298.19 K	242.5 ± 9.4
298.47 K	242.7 ± 9.4
298.76 K	242.6 ± 9.4
299.04 K	242.7 ± 9.4
299.32 K	242.8 ± 9.4
299.61 K	242.9 ± 9.4
299.89 K	242.9 ± 9.4
300.18 K	243 ± 9.4
300.46 K	243.1 ± 9.4
300.74 K	243 ± 9.4
301.03 K	243 ± 9.4
301.31 K	243.1 ± 9.4
301.6 K	243.2 ± 9.4
301.88 K	243.2 ± 9.4
302.16 K	243.3 ± 9.4
302.45 K	243.4 ± 9.4
302.73 K	243.5 ± 9.4
303.01 K	243.5 ± 9.4
303.3 K	243.6 ± 9.4
303.58 K	243.7 ± 9.4
303.87 K	243.7 ± 9.4
304.15 K	243.8 ± 9.4
304.43 K	243.9 ± 9.4
304.72 K	243.9 ± 9.4
305 K	244.1 ± 9.5
305.29 K	244.1 ± 9.5
305.57 K	244 ± 9.5
305.85 K	244.2 ± 9.5
306.14 K	244.3 ± 9.5
306.42 K	244.3 ± 9.5
306.7 K	244.4 ± 9.5
306.99 K	244.5 ± 9.5
307.27 K	244.6 ± 9.5
307.56 K	244.6 ± 9.5
307.84 K	244.7 ± 9.5
308.12 K	244.9 ± 9.5
308.41 K	244.8 ± 9.5
308.69 K	244.9 ± 9.5
308.98 K	245.1 ± 9.5
309.26 K	245 ± 9.5
309.54 K	245.1 ± 9.5
309.83 K	245.2 ± 9.5
310.11 K	245.4 ± 9.5
310.39 K	245.5 ± 9.5
310.68 K	245.5 ± 9.5
310.96 K	245.5 ± 9.5
311.25 K	245.7 ± 9.5
311.53 K	245.7 ± 9.5
311.81 K	245.8 ± 9.5
312.1 K	245.9 ± 9.5
312.38 K	246 ± 9.5
312.67 K	246 ± 9.5
312.95 K	246.1 ± 9.5
313.23 K	246.3 ± 9.5
313.52 K	246.2 ± 9.5
313.8 K	246.5 ± 9.5
314.08 K	246.5 ± 9.5
314.37 K	246.6 ± 9.6
314.65 K	246.5 ± 9.5
314.94 K	246.7 ± 9.6
315.22 K	246.8 ± 9.6
315.5 K	246.9 ± 9.6
315.79 K	246.9 ± 9.6
316.07 K	247 ± 9.6
316.36 K	247.1 ± 9.6
316.64 K	247.3 ± 9.6
316.92 K	247.4 ± 9.6
317.21 K	247.5 ± 9.6
317.49 K	247.5 ± 9.6
317.77 K	247.6 ± 9.6
318.06 K	247.7 ± 9.6
318.34 K	247.7 ± 9.6
318.63 K	247.8 ± 9.6
318.91 K	248 ± 9.6
319.19 K	248.1 ± 9.6
319.48 K	248.2 ± 9.6
319.76 K	248.2 ± 9.6
320.05 K	248.3 ± 9.6
320.33 K	248.4 ± 9.6
320.61 K	248.5 ± 9.6
320.9 K	248.5 ± 9.6
321.18 K	248.6 ± 9.6
321.46 K	248.7 ± 9.6
321.75 K	248.9 ± 9.6
322.03 K	249 ± 9.6
322.32 K	249 ± 9.6
322.6 K	249.1 ± 9.6
322.88 K	249.3 ± 9.7
323.17 K	249.3 ± 9.7
323.45 K	249.5 ± 9.7
323.74 K	249.5 ± 9.7
324.02 K	249.6 ± 9.7
324.3 K	249.7 ± 9.7
324.59 K	249.9 ± 9.7
324.87 K	250.1 ± 9.7
325.16 K	250.2 ± 9.7
325.44 K	250.1 ± 9.7
325.72 K	250.1 ± 9.7

Reference: the NIST ThermoML archive (doi:10.1016/j.jct.2019.03.035)
